Results taken from US20260347372A1, “SMALL MOLECULE INHIBITORS OF KRAS G12D MUTANT” (MERCK SHARP & DOHME LLC, priority 2023, published 2026).

What was measured:
KRAS G12V = KRAS G12V (Homo sapiens, UniProt P01116, G12V); experiment: SOS-catalyzed nucleotide exchange assay, KRAS G12V (Procedure A); type: biochemical; conditions: GNE
Excerpt: (§1) Procedure for SOS-Catalyzed Nucleotide Exchange Assay for KRAS-WT, G12C/D/V, G13D, HRAS, and NRAS (Procedure A)
(§2) Recombinant KRAS-G12C protein used in this assay has an additional triple mutation (C51S/C80L/C118S). Whereas KRAS-WT, G12D/V, G13D, HRAS and NRAS are in context of their WT protein sequence background. Specifically, the SOS-catalyzed nucleotide exchange assay utilizes a preformed TR-FRET complex containing a specific biotinylated RAS protein (KRAS-WT, G12C/V/D, G13D, HRAS, NRAS; described above) with Bodipy-GDP, and Terbium-streptavidin. Compounds are preincubated with this complex for 60 minutes. Subsequently, recombinant human SOS protein and unlabeled GTP are added to initiate the exchange reaction. Small molecule inhibitors stabilize the Bodipy-GDP complex whereas the untreated protein rapidly exchanges Bodipy-GDP for unlabeled GTP resulting in reduced TR-FRET signal.
(§3) To assemble the preformed TR-FRET complexes, each biotinylated RAS protein is diluted to 2 μM in an EDTA Buffer (20 mM HEPES pH 7.5, 50 mM sodium chloride, 10 mM EDTA, and 0.01% Tween) and incubated at room temperature for one hour. This mixture is then further diluted to 90 nM in an Assay Buffer (20 mM HEPES pH 7.5, 150 mM sodium chloride, 10 mM magnesium chloride, and 0.005% Tween) containing 15 nM of Terbium-Streptavidin (Invitrogen, catalog #PV3577) and 900 nM of Bodipy-GDP (Invitrogen, catalog #G22360) and incubated at room temperature for six hours. It should be noted that this preformed TR-FRET complex for each of the RAS protein were made ahead of time, aliquoted and stored at −80° C. until the day of the experiment.
(§4) Each test compound (10 mM stock in DMSO) is diluted in DMSO to make a final-10-point, 3-fold dilution and is acoustically dispensed into a 384-well assay plate (Corning, catalog #3820) using an Echo 550 (Labcyte). Each well of the assay plate receives 3 μL of a specific 3×RAS preformed TR-FRET complex and 3 μL of Assay Buffer and is incubated at room temperature for 60 minutes (preincubation time). Each well then receives 3 μL of 3× recombinant human SOS protein and GTP (Sigma, G8877) in Assay Buffer and is incubated at room temperature for 30 minutes (G13D), 60 minutes (KRAS WT/G12C/D, H/NRAS) or 90 minutes for G12V. The final reaction in each well of 9 μL consists of 3 mM GTP, specific Ras and SOS proteins in the following concentrations: KRAS-G12C/SOS=3 nM/40 nM, KRAS-WT and G12D/SOS=1 nM/40 nM, KRAS-G12V/SOS=1.25 nM/160 nM, KRAS-G13D/SOS=1.25 nM/0 nM, HRAS and NRAS=1.25 nM/40 nM.
(§5) The time-resolved fluorescence resonance energy transfer (TR-FRET) signal is measured on an Envision (PerkinElmer) plate reader: Excitation filter=340 nm; emission1=495 nm; emission2=520 nm; dichroic mirror=D400/D505; delay time=[…]. The signal of each well is determined as the ratio of the emission at 520 nm to that at 495 nm. Percent effect of each well is determined after normalization to control wells containing DMSO (no effect) or a saturating concentration of inhibitor (max effect). The apparent effect as a function of compound concentration is fit to a four-parameter logistic equation.
(§6) For Example No. 14, nucleotide exchange assays for KRAS G12D, WT, G12C, and G12V were performed according to Procedure B. All the other compounds were tested according to Procedure A.

KRAS WT = KRAS WT (Homo sapiens, UniProt P01116); experiment: SOS-catalyzed nucleotide exchange assay, KRAS WT (Procedure A); type: biochemical; conditions: GNE
Chain of KRAS WT (P01116 with tags, fused parts or gaps isoform P01116-2): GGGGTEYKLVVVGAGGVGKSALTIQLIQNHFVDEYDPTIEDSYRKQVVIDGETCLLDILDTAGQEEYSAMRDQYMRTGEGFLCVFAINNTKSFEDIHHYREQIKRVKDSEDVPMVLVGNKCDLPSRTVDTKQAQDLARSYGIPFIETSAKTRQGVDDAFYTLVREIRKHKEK
Excerpt: as §1, §2, §3, §4, §5, §6

AsPC-1 cells = molecular target: T1, AsPC-1 cells (Homo sapiens, UniProt P01116, G12D); experiment: Cellular phospho-ERK assay, AsPC-1 cells (KRAS G12D); type: cell-based; conditions: 2 hours, read-out: AsPC1 pERK IC50
T1 construct: p-ERK/total ERK AlphaSureFire read-out
T1 sequence (P01116 1-188 isoform P01116-2 G12D): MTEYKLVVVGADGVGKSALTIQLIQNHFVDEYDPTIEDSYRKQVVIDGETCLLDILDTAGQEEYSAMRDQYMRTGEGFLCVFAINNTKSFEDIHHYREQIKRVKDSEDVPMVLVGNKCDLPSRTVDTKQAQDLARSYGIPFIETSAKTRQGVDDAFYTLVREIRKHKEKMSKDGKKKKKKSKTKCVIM
Description: Procedure for Cellular Phospho-ERK Assay in KRAS Wild Type and Mutant (G12D, G12V) Cell Lines
PANC08.13 cells (ATCC® CRL-2551™), containing homozygous KRAS-G12D activating mutation, were cultured in growth medium made of RPMI1640-GlutaMAX™-I (ThermoFisher Scientific 61870) containing 15% heat inactivated fetal bovine serum (ThermoFisher Scientific 10091148)). AsPC-1 cells (ATCC® CRL-1682™), containing homozygous KRAS-G12D activating mutation, were cultured in T150 flask in growth medium (RPMI medium 1640-GlutaMAX™-I (ThermoFisher Scientific 61870) containing 10% fetal bovine serum (ThermoFisher Scientific 10091148)).
Cells for the assay were harvested in growth medium after TrypLE (ThermoFisher scientific 12604021) digestion and were seeded in a 384-well collagen coated cell culture plate (Corning 356702) at a density of 10,000-15,000 cells/20 μL/well, and incubated at 37° C., 5% CO2 overnight. The compound (with 10 mM stock concentration) dose-response titrations were prepared [30 μM final ERK detection assay concentration and 1:3 dilutions, 10-point dose response] and appropriate amounts (270 nL) of test compounds were dispensed in a 384-well intermediate plate using an Echo 550 liquid handler. 30 μL/well of RPMI medium 1640-GlutaMAX™-I was added to the intermediate plate and the contents of the intermediate plate (10 μL/well) were then transferred to the 384-well collagen coated cell culture plate, which was incubated at 37° C., 5% CO2 for 2 hours. After removal of medium from the collagen coated cell culture plate, cells were lysed in lysis buffer from Alpha SureFire® Ultra™ Multiplex p-ERK and total ERK assay kit (PerkinElmer MPSU-PTERK) containing Halt™ Protease and Phosphatase inhibitor cocktail (ThermoFisher Scientific 78446) at room temperature with constant shaking at 300 rpm for 30 minutes. The cell lysates were then transferred to an OptiPlate-384 plate (PerkinElmer 6005620), and the phosphorylation of ERK (p-ERK) and total ERK levels were detected by Alpha SureFire® Ultra™ Multiplex p-EEK kit and total ERK assay kit (PerkinElmer MPSU-PTERK) following the manufacturer's protocol. Assay plates were read on a EnVision Multimode Plate Reader (PerkinElmer), and the ratio of p-ERK vs. total ERK in each well was used as the final readout. Dose response curves were analyzed using a 4-parameter logistic model to calculate IC50 values using Spotfire software.

KRAS G12D = KRAS G12D (Homo sapiens, UniProt P01116, G12D); experiment: SOS-catalyzed nucleotide exchange assay, KRAS G12D (Procedure A); type: biochemical; conditions: guanine nucleotide exchange (GNE)
Chain of KRAS G12D (P01116 with tags, fused parts or gaps isoform P01116-2 G12D): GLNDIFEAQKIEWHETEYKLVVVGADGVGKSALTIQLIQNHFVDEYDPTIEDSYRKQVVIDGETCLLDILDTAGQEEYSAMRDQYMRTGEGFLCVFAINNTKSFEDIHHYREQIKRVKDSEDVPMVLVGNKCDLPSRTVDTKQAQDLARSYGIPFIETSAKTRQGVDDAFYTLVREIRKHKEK
Excerpt: as §1, §2, §3, §4, §5, §6

Chain of KRAS G12V (P01116 with tags, fused parts or gaps isoform P01116-2 G12V): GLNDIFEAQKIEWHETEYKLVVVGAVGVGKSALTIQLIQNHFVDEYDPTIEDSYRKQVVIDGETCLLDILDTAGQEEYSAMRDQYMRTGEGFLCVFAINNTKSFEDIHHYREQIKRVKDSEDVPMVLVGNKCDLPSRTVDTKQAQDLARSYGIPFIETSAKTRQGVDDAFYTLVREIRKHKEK

Structure (SMILES) | IC50 (KRAS G12V) [nM] | IC50 (KRAS WT) [nM] | IC50 (AsPC-1 cells) [nM] | IC50 (KRAS G12D) [nM]
Cc1cc2[nH]ncc2c(-c2nccc3c2sc2nc(OCC4CS(=O)(=O)C4)nc(N4C[C@H]5CC[C@@H](C4)N5)c23)c1C(F)(F)F [Ex-27, 3-(((4-((1R,5S)-3,8-diazabicyclo[3.2.1]octan-3-yl)-8-(6-methy1-5-(trifluoromethyl)-1H-indazol-4-yl)pyrido[4′,3′:4,5]thieno[2,3-d]pyrimidin-2-yl)oxy)methyl)thietane 1,1-dioxide] | > 11100 | > 11100 | 5730 | 3590
C#Cc1csc2cc3[nH]ncc3c(-c3nccc4c3sc3nc(OC[C@@]56CCCN5C/C(=C\F)C6)nc(N5C[C@H]6CC[C@@H](C5)N6)c34)c12 [Ex-85, 4-((1R,5S)-3,8-diazabicyclo[3.2.1]octan-3-yl)-8-(5-ethynyl-1H-thieno[3,2-f]indazol-4-yl)-2-(((S,Z)-2-(fluoromethylene)tetrahydro-1H-pyrrolizin-7a(5H)-yl)methoxy)pyrido[4′,3′:4,5]thieno[2,3-d]pyrimidine] | 28.2 | 32.1 | 8.52 | 2.06
F[C@H]1CN2CCC[C@@]2(COc2nc(N3C[C@H]4CC[C@@H](C3)N4)c3c(n2)sc2c(-c4c(C5CC5)c(C(F)(F)F)cc5[nH]ncc45)nccc23)C1 [Ex-80, 4-((1R,5S)-3,8-diazabicyclo [3.2.1]octan-3-yl)-8-(5-cyclopropyl-6-(trifluoromethyl)-1H-indazol-4-yl)-2-(((2R,7aS)-2-fluorotetrahydro-1H-pyrrolizin-7a(5H)-yl)methoxy)pyrido [4′,3′:4,5]thieno [2,3-d]pyrimi-dine] | 734 | 706 | 411 | 3.57
Cc1cc2[nH]ncc2c(-c2nccc3c2sc2nc(OCCN4CCOC4=O)nc(N4C[C@H]5CC[C@@H](C4)N5)c23)c1C(F)(F)F [Ex-40, 3-(2-((4-((1R,5S)-3,8-diazabicyclo[3.2.1]octan-3-yl)-8-(6-methyl-5-(trifluoromethyl)-1H-indazol-4-yl)pyrido[4′,3′:4,5]thieno[2,3-d]pyrimidin-2-yl)oxy)ethyl)oxazolidin-2-one] | > 11100 | > 11100 | > 30000 | 5880
C#Cc1c(F)ccc2cc3[nH]ncc3c(-c3nccc4c3sc3nc(OC[C@@]56CCCN5C/C(=C\F)C6)nc(N5C[C@H]6CC[C@@H](C5)N6)c34)c12 [Ex-89, 4-((1R,5S)-3,8-diazabicyclo[3.2.1]octan-3-yl)-8-(5-ethynyl-6-fluoro-1H-benzo[f]indazol-4-yl)-2-(((S,Z)-2-(fluoromethylene)tetrahydro-1H-pyrrolizin-7a(5H)-yl)methoxy)pyrido[4′,3′:4,5]thieno[2,3-d]pyrimidine] | 48.8 | 32.8 | 8.18 | 1.67

Now from value to molecule:

IC50 (KRAS G12V) [nM] | IC50 (KRAS WT) [nM] | IC50 (AsPC-1 cells) [nM] | IC50 (KRAS G12D) [nM] | Structure (SMILES)
> 11100 | 6360 | 362 | 6.92 | C#Cc1c(F)ccc2cc3[nH]ncc3c(-c3nccc4c3sc3nc(OC[C@]5(CN6CCC7(CCC7)CC6)CC5(F)F)nc(N5C[C@H]6CC[C@@H](C5)N6)c34)c12 [Ex-98, 2-(((R)-1-((7-azaspiro[3.5]nonan-7-yl)methyl)-2,2-difluorocyclopropyl)meth-oxy)-4-((1R,5S)-3,8-diazabicyclo[3.2.1]octan-3-yl)-8-(5-ethynyl-6-fluoro-1H-benzo[f]indazol-4-yl)pyrido[4′,3′:4,5]thie-no[2,3-d]pyrimidine]
859 | 369 | 189 | 2.4 | Fc1ccc2cc3[nH]ncc3c(-c3nccc4c3C3(CC3)c3nc(OC[C@@]56CCCN5C[C@H](F)C6)nc(N5C[C@H]6CC[C@@H](C5)N6)c3-4)c2c1Cl (single isomer, unassigned) [Ex-117]
2740 | 1080 | 59.9 | 1.53 | C#Cc1c(F)ccc2cc3[nH]ncc3c(-c3nccc4c3sc3nc(OC[C@]5(CN6CC7(CC(F)C7)C6)CC5(F)F)nc(N5C[C@H]6CC[C@@H](C5)N6)c34)c12 [Ex-99, 4-((1R,5S)-3,8-diazabicyclo[3.2.1]octan-3-yl)-2-(((R)-2,2-difluoro-1-((6-fluoro-2-azaspiro[3.3]heptan-2-yl)methyl)cyclopropyl)methoxy)-8-(5-ethynyl-6-fluoro-1H-benzo[f]indazol-4-yl)pyrido[4′,3′:4,5]thie-no[2,3-d]pyrimidine]
1850 | 1110 | 2380 | 492 | Cc1cc2[nH]ncc2c(-c2nccc3c2sc2nc(OC[C@@]45CCCN4C[C@H](F)C5)nc(N4C[C@H]5CC[C@@H](C4)N5CC(C)O)c23)c1C(F)(F)F (stereo partly drawn) [Ex-113, 1-((1R,5S)-3-(2-(((2R,7aS)-2-fluorotetrahydro-1H-pyrrolizin-7a(5H)-yl)methoxy)-8-(6-methyl-5-(trifluoromethyl)-1H-indazol-4-yl)pyrido[4′,3′:4,5]thieno[2,3-d]pyrimidin-4-yl)-3,8-diazabicyclo[3.2.1]octan-8-yl)propan-2-ol]
> 11100 | > 11100 | 2770 | 12.3 | C#Cc1c(F)ccc2cc3[nH]ncc3c(-c3nccc4c3sc3nc(OC[C@]5(CN6CCN(C(C)=O)CC6)CC5(F)F)nc(N5C[C@H]6CC[C@@H](C5)N6)c34)c12 [Ex-102, 1-(4-(((1R)-1-(((4-((1R,5S)-3,8-diazabicyclo[3.2.1]octan-3-yl)-8-(5-ethynyl-6-fluoro-1H-benzo[f]indazol-4-yl)pyrido [4′,3′:4,5]thie-no[2,3-d]pyrimidin-2-yl)oxy)methyl)-2,2-difluorocyclopropyl)meth-yl)piperazin-1-yl)ethan-1-one]
